Results reported in patent US10268799B2, “Screening methods for thyroid hormone disruptors based on co-regulator involved simulations” (Nanjing University, priority 2016, dated 2019).
“Also recorded” adds a separate entry of the source.

How the values were obtained:
human TRα-LBD = biological target: T1, human TRα-LBD (Homo sapiens, UniProt P10827); assay: Competitive binding assay with Fluorescein-labeled T3 probe, human TRα; conditions: result in words (FIG. 2A)
T1 sequence (P10827 163-410 isoform P10827-2): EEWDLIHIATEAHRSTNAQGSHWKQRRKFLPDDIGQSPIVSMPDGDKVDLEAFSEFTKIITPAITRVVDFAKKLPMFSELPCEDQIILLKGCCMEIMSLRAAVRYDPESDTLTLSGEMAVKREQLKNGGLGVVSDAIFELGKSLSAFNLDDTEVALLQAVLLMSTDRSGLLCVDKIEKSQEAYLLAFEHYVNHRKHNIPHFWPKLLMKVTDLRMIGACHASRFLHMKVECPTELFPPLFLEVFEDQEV

GH3 cells = assay: GH3 cell proliferation assay (anti-TH potency); assay type: cell-based, rat; conditions: for −log RIC20 (relative anti-TH potency): RIC20 (mol/L) is 20% inhibition of proliferation of GH3 cells induced by 0.5 nM T3; for TH disrupting effect determined in GH3 proliferation assay: result in words
Description: The rat pituitary tumor cell line GH3 was cultured for determination of the relative TH disrupting potencies. […] Due to cytotoxicity, the other 3 HO-PBDEs were not tested for anti-TH potencies.

| SMILES | binding affinity with TRα (human TRα-LBD) | −log RIC20 (relative anti-TH potency) (GH3 cells) | TH disrupting effect determined in GH3 proliferation assay (GH3 cells) |
| --- | --- | --- | --- |
| Oc1c(Oc2ccc(Br)cc2Br)cc(Br)c(Br)c1Br [2-HO-BDE-123] | greater affinities | 7.44 | antagonists of the TR |
| Oc1c(Oc2ccc(Br)cc2Br)ccc(Br)c1Br [2′-OH-BDE-66] | – | 7.09 | – |
| Oc1c(Br)cc(Br)cc1Oc1ccc(Br)cc1Br [2′-OH-BDE-68] | – | 7.15 | – |
| Oc1c(Br)cc(Br)c(Oc2ccc(Br)cc2Br)c1Br [3-HO-BDE-100] | greater affinities; also recorded: one of the strongest binding ligands | 7.83 | – |
| Oc1c(Br)cc(Oc2ccc(Br)cc2Br)c(Br)c1Br [4-HO-BDE-90] | – | 7.59 | antagonists of the TR |
| Oc1c(Br)c(Br)c(Oc2c(Br)cc(Br)cc2Br)c(Br)c1Br [4-HO-BDE-188] | – | 8.42 | – |
| Oc1cc(Br)c(Oc2ccc(Br)cc2Br)cc1Br [4′-HO-BDE-49] | too weak to detect | 7.30 | – |
| Oc1cc(Br)c(Oc2cc(Br)c(Br)cc2Br)cc1Br [4′-HO-BDE-101] | – | 8.11 | – |
| Oc1ccc(Oc2ccc(Br)cc2Br)c(Br)c1 [4′-OH-BDE-17] | – | 6.51 | – |
| Oc1c(Br)cc(Br)c(Br)c1Oc1ccc(Br)cc1Br [6-HO-BDE-90] | – | 7.76 | – |
| Oc1c(Br)c(Br)c(Br)c(Br)c1Oc1ccc(Br)cc1Br [6-HO-BDE-137] | greater affinities | 8.03 | antagonists of the TR |
| Oc1cc(Br)c(Br)c(Br)c1Oc1cc(Br)c(Br)c(Br)c1 [6-HO-BDE-157] | – | 8.14 | – |
| Oc1cccc(Br)c1Oc1ccc(Br)cc1Br [6′-HO-BDE-17] | – | 6.78 | – |
